Assay [1] deals with T1, 5-HT2A receptor (Homo sapiens (Human), UniProt P28223). Briefly: Radioligand binding assay ([3H]5-HT competition), 5-HT2A. To be noted: [3H]5-HT radioligand, membranes of HEK293 cells expressing recombinant 5-HT2A; Ki from IC50 by Cheng-Prusoff; read-out: 5-HT2A serotonin binding Ki value.
The target in assay [2] is T1, 5-HT2A receptor. Briefly: HTRF IP-One antagonist assay, 5-HT2A. The following applies: HEK293 cells stably expressing recombinant human receptor; IP accumulation with 80 nM 5-HT. Format: cell-based. Here is the method: (§1) HEK293 cells stably expressing 5-HT2 receptors were generated using standard procedures. Cells were dilution cloned and clonal cell lines stably expressing the receptors at low levels were selected for pharmacology studies. In radioligand binding studies using a variety of radiolabeled probes, receptor densities in the 2A, 2B and 2C cell lines were estimated to be 50-70, 150-200, and 10-20 fmol/mg, respectively.
(§2) Inositol phosphate accumulation assays were performed using the HTRF IP-One assay system developed by Cisbio and generally followed the manufacturer's instructions. Briefly, HEK293 cells stably expressing recombinant human receptors were harvested and resuspended in phenol-red free OptiMEM (ThermoFisher), plated into 384-well assay plates (Perkin Elmer, ProxiPlate-Plus® Cat #6008280) at 10,000 cells/well in a volume of 10 μL/well, and incubated overnight at 37° C., 5% CO2. Test compounds were solubilized and serially diluted in DMSO, and then diluted into Assay Buffer (Tris HCl 20 mM, NaCl 150 mM, LiCl 40 mM, pargyline 25 μM, pH 8) containing 80 nM 5-HT. Test compounds were added to the cells (4 μL/well addition, maximal final assay concentration typically 10 μM) and plates, incubated for 2 hrs at 37° C./5% CO2 and then removed from the incubator and allowed to cool to room temperature for 30 minutes prior to addition of IP-One detection reagents. IP-One detection reagents (6 μL/well) were added and plates incubated for 1 hr at room temperature before reading on an HTRF compatible reader such as a Perkin Elmer EnVision® or BMG PheraStar®. Dose-response experiments utilized 10-point curves, typically starting at 10 μM, with 5-fold serial dilutions. Experiments were performed with triplicate data points and independent replicate experiments were performed to ensure data consistency.
(TR-FRET usually uses a lanthanide donor and a delayed reading to cut background.)

Assay [3] deals with 5-HT2B receptor (Homo sapiens (Human), UniProt P41595). Briefly: HTRF IP-One antagonist assay, 5-HT2B. Format: cell-based. To be noted: HEK293 cells stably expressing recombinant human receptor; IP accumulation with 80 nM 5-HT. The method, then:
as §1, §2

Assay [4] deals with 5-HT2C receptor (Homo sapiens (Human), UniProt P28335). Briefly: HTRF IP-One antagonist assay, 5-HT2C. To be noted: HEK293 cells stably expressing recombinant human receptor; IP accumulation with 80 nM 5-HT. Format: cell-based. The method, then:
as §1, §2

This passage reports Ki and IC50 results from patent US20240376090A1, “ISOXAZOLE DERIVATIVES AS MODULATORS OF THE 5-HT2A SEROTONIN RECEPTOR USEFUL FOR THE TREATMENT OF DISORDERED RELATED THERETO” (Arena Pharmaceuticals, Inc., priority 2020, published 2024).

The term Ki denotes the equilibrium dissociation constant of an inhibitor or competing ligand from its target. A word on the IC50: it is the concentration needed to halve the response being measured.

Chain of 5-HT2B receptor (P41595 whole entry): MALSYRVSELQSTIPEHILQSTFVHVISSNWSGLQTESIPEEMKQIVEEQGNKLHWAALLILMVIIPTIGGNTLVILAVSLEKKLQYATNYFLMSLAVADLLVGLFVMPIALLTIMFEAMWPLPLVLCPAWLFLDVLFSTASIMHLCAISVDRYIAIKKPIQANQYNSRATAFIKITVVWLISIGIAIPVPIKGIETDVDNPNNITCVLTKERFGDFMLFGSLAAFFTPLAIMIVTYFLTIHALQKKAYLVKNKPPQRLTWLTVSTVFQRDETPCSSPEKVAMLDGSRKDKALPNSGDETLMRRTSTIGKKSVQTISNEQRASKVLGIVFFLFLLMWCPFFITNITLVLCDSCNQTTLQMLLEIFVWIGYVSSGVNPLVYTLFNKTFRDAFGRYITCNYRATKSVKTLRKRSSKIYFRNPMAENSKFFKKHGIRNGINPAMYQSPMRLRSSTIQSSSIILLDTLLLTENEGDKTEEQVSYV
Chain of 5-HT2C receptor (P28335 33-458): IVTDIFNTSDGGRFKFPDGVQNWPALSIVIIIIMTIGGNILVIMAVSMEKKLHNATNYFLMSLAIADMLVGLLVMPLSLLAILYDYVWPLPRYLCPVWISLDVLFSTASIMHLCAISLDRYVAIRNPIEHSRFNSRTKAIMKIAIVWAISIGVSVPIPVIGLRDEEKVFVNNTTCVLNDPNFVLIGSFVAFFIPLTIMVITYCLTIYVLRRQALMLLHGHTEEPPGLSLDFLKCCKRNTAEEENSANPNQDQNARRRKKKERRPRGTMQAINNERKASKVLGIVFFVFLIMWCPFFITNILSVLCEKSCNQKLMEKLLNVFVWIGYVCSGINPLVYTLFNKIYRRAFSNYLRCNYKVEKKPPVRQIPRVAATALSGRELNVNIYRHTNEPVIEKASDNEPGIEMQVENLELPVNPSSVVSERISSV
T1 sequence (P28223 whole entry): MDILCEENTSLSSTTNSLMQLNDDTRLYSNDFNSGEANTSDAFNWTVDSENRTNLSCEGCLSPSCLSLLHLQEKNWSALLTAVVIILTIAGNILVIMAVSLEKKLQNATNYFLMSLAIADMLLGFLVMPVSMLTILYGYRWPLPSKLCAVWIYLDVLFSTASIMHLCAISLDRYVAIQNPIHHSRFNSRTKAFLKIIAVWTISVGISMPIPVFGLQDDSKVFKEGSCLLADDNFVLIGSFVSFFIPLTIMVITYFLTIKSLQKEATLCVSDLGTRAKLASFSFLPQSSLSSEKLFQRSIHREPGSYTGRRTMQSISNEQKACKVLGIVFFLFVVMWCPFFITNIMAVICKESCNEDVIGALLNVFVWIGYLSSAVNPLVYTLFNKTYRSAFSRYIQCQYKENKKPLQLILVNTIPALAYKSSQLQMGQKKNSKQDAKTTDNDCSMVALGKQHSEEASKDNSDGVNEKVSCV

Take `CO[C@H]1CCN(CCOc2ccc(NC(=O)C3CC3)cc2-c2c(C)noc2C)C1` [Compound 144, (S)—N-(3-(3,5-dimethylisoxazol-4-yl)-4-(2-(3-methoxypyrrolidin-1-yl)ethoxy)phenyl)cyclopropanecarboxamide]: the Ki in assay [1] amounted to 14.9 nM. The IC50 in assay [2] was 85.5 nM; in assay [3], at least 100000 nM; in assay [4], at least 100000 nM.
Regarding `Cc1noc(C)c1-c1cc(NC(=O)C2CC2)ccc1OCCN1CCC(O)CC1` [Compound 146, N-(3-(3,5-dimethylisoxazol-4-yl)-4-(2-(4-hydroxypiperidin-1-yl)ethoxy)phenyl)cyclopropanecarboxamide], in assay [1], the Ki came to 5.08 nM. In addition, the values for the IC50 in assay [2], in assay [3] and in assay [4] were 15.7 nM, at least 100000 nM and at least 100000 nM, respectively.
On to `Cc1noc(C)c1-c1cc(NC(=O)C2CC2)ccc1OC[C@H]1CCCCN1` [Compound 169, N-[3-(3,5-dimethylisoxazol-4-yl)-4-[[(2R)-2-piperidyl]methoxy]phenyl]cyclopropanecarboxamide], for which the Ki in assay [1] was 2.16 nM. Besides, the half-inhibitory concentration (IC50) in assay [2] was 13 nM; in assay [3], at least 100000 nM; in assay [4], at least 100000 nM.
In the case of `Cc1nscc1C(=O)Nc1ccc(OC[C@H]2CCCCN2)c(-c2c(C)noc2C)c1` [Compound 187, (R)—N-(3-(3,5-dimethylisoxazol-4-yl)-4-(piperidin-2-ylmethoxy)phenyl)-3-methylisothiazole-4-carboxamide], the Ki in assay [1] is 4.01 nM. For the same molecule, the IC50 is 36.2 nM in assay [2], at least 100000 nM in assay [3] and at least 100000 nM in assay [4].
Take `Cc1noc(C)c1-c1cc(NC(=O)c2cccn2C)ccc1OC[C@H]1CCCCN1` [Compound 189, (R)—N-(3-(3,5-dimethylisoxazol-4-yl)-4-(piperidin-2-ylmethoxy)phenyl)-1-methyl-1H-pyrrole-2-carboxamide]: in assay [1], the Ki was found to be 3.92 nM. In addition, the IC50 in assay [2] is 24.9 nM; in assay [3], at least 100000 nM; in assay [4] it was at least 100000 nM.
Consider `Cc1noc(C)c1-c1cc(NC(=O)[C@H]2C[C@H]2F)ccc1OC[C@H]1CCCCN1` [Compound 191, (1R,2R)—N-(3-(3,5-dimethylisoxazol-4-yl)-4-(((R)-piperidin-2-yl)methoxy)phenyl)-2-fluorocyclopropane-1-carboxamide], for which, in assay [1], the Ki is 7.61 nM. The IC50 in assay [2] is 60.1 nM; in assay [3], at least 100000 nM; in assay [4], at least 100000 nM.
Take `Cc1ncoc1C(=O)Nc1ccc(OC[C@H]2CCCCN2)c(-c2c(C)noc2C)c1` [Compound 196, (R)—N-(3-(3,5-dimethylisoxazol-4-yl)-4-(piperidin-2-ylmethoxy)phenyl)-4-methyloxazole-5-carboxamide]: the Ki in assay [1] is 10.2 nM. Further, the IC50 in assay [2] was 45 nM; in assay [3] it was at least 100000 nM; in assay [4], at least 100000 nM.
In the case of `COCCNCCOc1ccc(NC(=O)C2CC2)cc1-c1c(C)noc1C` [Compound 197, N-[3-(3,5-dimethylisoxazol-4-yl)-4-[2-(2-methoxyethylamino)ethoxy]phenyl]cyclopropanecarboxamide], in assay [1], the Ki is 1.08 nM. The values for the IC50 in assay [2], in assay [3] and in assay [4] were 4.95 nM, at least 100000 nM and at least 100000 nM, respectively.
Turning to `CC(=N)NCCOc1ccc(NC(=O)C2CC2)cc1-c1c(C)noc1C` [Compound 198, N-(4-(2-acetimidamidoethoxy)-3-(3,5-dimethylisoxazol-4-yl)phenyl)cyclopropanecarboxamide], the Ki in assay [1] worked out at 5.39 nM. The figures for the IC50 in assay [2], in assay [3] and in assay [4] were 22.8 nM, at least 100000 nM and 3730 nM, respectively.
In the same order, the values of `Cc1noc(C)c1-c1cc(NC(=O)c2ccccc2)ccc1OC[C@H]1CCCCN1` [Compound 218, (R)—N-(3-(3,5-dimethylisoxazol-4-yl)-4-(piperidin-2-ylmethoxy)phenyl)benzamide] are 4.85 nM, 21.8 nM, at least 100000 nM and at least 100000 nM.
